Test results reported in article PMC11011526, “Identification of Inhibitors of the Disease-Associated Protein Phosphatase Scp1 Using Antibody Mimetic Molecules” (International Journal of Molecular Sciences, 2024).

Tests used:
Scp1 [1] = molecular target: T1, Scp1 (Homo sapiens, UniProt Q9GZU7); test: competition ELISA against FG-1Adn binding; details: 100 µM rabeprazole; 20 mM Na-maleate pH 5.5, 150 mM NaCl, 10 mM MgCl2; R.T.; indirect, displacement of adnectin FG-1Adn
T1 construct: gene CTDSP1; recombinant in E. coli Rosetta, Talon purified; His6-Scp1 (kinetics) or GST-Scp1-Myc-His6 (specificity assay)
T1 sequence (Q9GZU7 1-261): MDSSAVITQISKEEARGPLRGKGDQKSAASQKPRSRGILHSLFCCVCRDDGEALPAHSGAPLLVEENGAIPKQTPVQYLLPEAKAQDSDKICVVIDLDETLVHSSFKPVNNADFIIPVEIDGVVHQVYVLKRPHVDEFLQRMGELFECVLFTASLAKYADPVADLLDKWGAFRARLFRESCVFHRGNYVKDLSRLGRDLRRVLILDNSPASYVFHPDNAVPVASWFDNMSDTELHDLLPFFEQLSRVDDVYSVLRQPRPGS

Scp3 = molecular target: T2, Scp3 (Homo sapiens, UniProt O15194); test: colorimetric pNPP phosphatase assay, absorbance […] nm; type: biochemical; details: 20 mM Na-maleate pH 5.5, 10 mM MgCl2; 10 mM pNPP; 37 °C; 7 min
T2 construct: gene CTDSPL; recombinant, GST tag and Myc-His6 tag
T2 sequence (O15194 1-276): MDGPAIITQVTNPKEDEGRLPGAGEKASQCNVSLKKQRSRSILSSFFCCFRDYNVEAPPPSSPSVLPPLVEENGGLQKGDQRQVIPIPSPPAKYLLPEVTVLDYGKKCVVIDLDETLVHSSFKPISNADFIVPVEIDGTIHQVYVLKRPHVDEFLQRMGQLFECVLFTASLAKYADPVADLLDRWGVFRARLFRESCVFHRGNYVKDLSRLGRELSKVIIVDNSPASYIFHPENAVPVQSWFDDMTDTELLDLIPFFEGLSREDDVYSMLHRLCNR

Scp1 [2] = molecular target: T1, Scp1; test: as above; type: biochemical; details: 20 mM Na-maleate pH 5.5, 10 mM MgCl2; His6-Scp1 10 nM; no added adnectin
Scp2 = molecular target: T3, Scp2 (Homo sapiens, UniProt O14595); test: as above; type: biochemical; details: 20 mM Na-maleate pH 5.5, 10 mM MgCl2; 10 mM pNPP; 37 °C; 7 min
T3 construct: gene CTDSP2; recombinant, GST tag and Myc-His6 tag
T3 sequence (O14595 1-271): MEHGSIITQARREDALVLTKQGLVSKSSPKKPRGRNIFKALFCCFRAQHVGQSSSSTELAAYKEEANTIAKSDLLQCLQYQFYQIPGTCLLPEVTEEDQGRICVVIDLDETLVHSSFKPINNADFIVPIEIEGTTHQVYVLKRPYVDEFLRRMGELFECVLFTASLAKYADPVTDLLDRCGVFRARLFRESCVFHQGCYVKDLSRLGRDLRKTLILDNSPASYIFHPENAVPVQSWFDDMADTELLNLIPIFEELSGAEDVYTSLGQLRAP

Fcp1 = molecular target: T4, Fcp1 (Homo sapiens, UniProt Q9Y5B0); test: as above; type: biochemical; details: 20 mM Na-maleate pH 5.5, 10 mM MgCl2; 10 mM pNPP; 37 °C; 60 min
T4 construct: gene CTDP1; recombinant, GST tag and Myc-His6 tag
T4 sequence (Q9Y5B0 1-961): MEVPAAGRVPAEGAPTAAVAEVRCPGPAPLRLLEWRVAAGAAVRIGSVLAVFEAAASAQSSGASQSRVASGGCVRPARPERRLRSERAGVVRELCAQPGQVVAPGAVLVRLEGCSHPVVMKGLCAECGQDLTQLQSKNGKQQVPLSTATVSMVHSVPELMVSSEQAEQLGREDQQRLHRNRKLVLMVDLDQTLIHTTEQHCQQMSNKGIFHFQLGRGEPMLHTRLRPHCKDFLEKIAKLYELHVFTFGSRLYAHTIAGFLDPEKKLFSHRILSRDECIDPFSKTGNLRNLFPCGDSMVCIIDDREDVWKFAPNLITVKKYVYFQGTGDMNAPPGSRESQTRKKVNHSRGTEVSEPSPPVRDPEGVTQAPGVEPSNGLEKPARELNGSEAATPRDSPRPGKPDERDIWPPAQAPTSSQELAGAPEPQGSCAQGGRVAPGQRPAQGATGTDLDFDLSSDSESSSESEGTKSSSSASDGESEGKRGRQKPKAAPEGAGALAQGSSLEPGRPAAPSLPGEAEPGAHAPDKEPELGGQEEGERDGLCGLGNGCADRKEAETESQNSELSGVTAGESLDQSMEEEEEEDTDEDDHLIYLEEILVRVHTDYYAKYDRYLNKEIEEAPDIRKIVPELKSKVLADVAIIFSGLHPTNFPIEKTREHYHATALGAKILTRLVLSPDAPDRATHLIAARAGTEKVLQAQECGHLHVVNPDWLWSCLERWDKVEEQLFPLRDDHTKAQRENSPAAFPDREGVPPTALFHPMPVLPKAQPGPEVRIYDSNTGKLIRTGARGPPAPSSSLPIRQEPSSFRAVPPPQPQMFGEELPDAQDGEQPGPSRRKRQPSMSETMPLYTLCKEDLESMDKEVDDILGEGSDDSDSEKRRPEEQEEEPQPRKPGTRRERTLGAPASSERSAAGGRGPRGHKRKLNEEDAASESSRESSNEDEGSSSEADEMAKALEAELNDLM

FG-1Adn (human) = test: BLI; BLItz system, Advanced Kinetics mode; biotinylated FG-1Adn loaded on streptavidin biosensors; 20 mM Na-maleate (pH 5.5), 150 mM NaCl, 10 mM MgCl2, 0.05% Tween; 250 nM Scp1, 120 s association, 120 s dissociation; 1:1 Langmuir model

Molecule: COCCCOc1ccnc(C[S+]([O-])c2nc3ccccc3[nH]2)c1C (stereo not drawn) [rabeprazole]
- almost complete inhibition of FG-1Adn binding (Scp1 [1]): rabeprazole almost completely inhibited the binding of FG-1Adn to Scp1

Molecule: O=[N+]([O-])c1ccc(OP(=O)(O)O)cc1 [pNPP]
- colorimetric pNPP phosphatase assay, absorbance 410 nm (Scp3): inhibitory effects of FG-1Adn inhibition against FCP/SCP phosphatases using pNPP as a substrate
- colorimetric pNPP phosphatase assay, absorbance 410 nm (Scp1 [2]): Lineweaver–Burk plot analysis was performed using pNPP as a substrate
- colorimetric pNPP phosphatase assay, absorbance 410 nm (Scp2): inhibitory effects of FG-1Adn inhibition against FCP/SCP phosphatases using pNPP as a substrate
- colorimetric pNPP phosphatase assay, absorbance 410 nm (Fcp1): inhibitory effects of FG-1Adn inhibition against FCP/SCP phosphatases using pNPP as a substrate

B1: Scp1 (enzyme)
chain: T1 sequence (Q9GZU7 1-261)
- Kd (FG-1Adn (human)): 48.7 nM
